# Laboratory results published in article PMC3709979 (PLoS ONE, 2013).
# Where “and” joins values, the source holds several entries; their conditions need not be identical. Equal entries are not always repeated. Entries after “also recorded” stand apart in the source; their conditions may differ. Where two headings read alike, the source gives them in different places.
# Tests used:
# human recombinant ERβ [1] = target: T1, human recombinant ERβ (Homo sapiens, UniProt Q92731); parameters: purchased Invitrogen (Grand Island, NY); method as in J. Agric. Food Chem. 2005, 53, 6246–6253; conditions: read-out: IC50 ERβ; isolated compounds; ref J. Agric. Food Chem. 2005, 53, 6246–6253; cited from earlier work
# [2] = test system: estrogen responsive element (ERE)-luciferase in MCF-7 cells; experiment: ERE-luciferase induction in MCF-7 cells; type: cell-based; conditions: 24 h; for ERE-luciferase induction in MCF-7 cells (in words): isolated compounds tested at 0.1 µM and 1 µM
# Description: The Dual-Luciferase Reporter Assay System protocol from Promega (Madison, WI) was used to evaluate the activation of ERs through interaction with ERE at the promoter of estrogen responsive genes, resulting in the expression of the fused luciferase reporter. Briefly, MCF-7 cells grown in phenol-red free medium for 48 h, were trypsinized and re-suspended in serum-free medium at 1×10^7 cells/mL followed by a 10 min incubation at room temperature with pERE (3 µg/mL) obtained from Dr. V. C. Jordan, Northwestern University, and pRL-TK (Promega) (1 µg/mL) in a 4 mm gap cuvette before electroporation at 950 µF and 250 V using the Gene Pulser Xcell (BioRad Laboratories, Hercules, CA). Transfected cells were diluted in serum containing medium and plated in 24-well plates (2×10^5 cells/well). After 24 h, the cells were washed with PBS and treated with two concentrations of the crude extracts (2 µg/mL and 10 µg/mL) and two concentrations of the isolated compounds (0.1 µM and 1 µM), for an additional 24 h. […] Cell lysates (20 µL) were placed in white Costar 96-well plates, before the injection of Luciferase Assay reagent (100 µL) followed by a 12 s read by a FLUOstar OPTIMA (BMG Lab Tech, Offenburg, Germany). To quench the firefly luciferase expression and activation of the renilla expression, Stop & Glo reagent (100 µL) was injected followed by a 12 s read. In order to exclude the errors in transfection efficiency, average read out of the luciferase activity was normalized to the average associated pRL-TK read outs (renilla activity). The results were converted into fold induction by normalizing to DMSO.
# [3] = test system: estrogen-responsive alkaline phosphatase in Ishikawa cells; experiment: Induction of estrogen-responsive alkaline phosphatase (AP) in Ishikawa cells; conditions: 96 h; for EC50: Homo sapiens, Ishikawa
# Description: Ishikawa cells (5×10^4 cells/well) were pre-incubated in 96 well plates in estrogen-free medium for 24 h. Test samples dissolved in DMSO, were added at different concentrations and the DMSO concentration was kept lower than 0.1%. […] Plates were incubated at 37°C for 96 h. […] The maximum slope of the kinetic curve for every experiment well was calculated.
# ERα [4] = target: T2, ERα (Homo sapiens, UniProt P03372); experiment: biochemical
# T2 sequence (P03372 1-595): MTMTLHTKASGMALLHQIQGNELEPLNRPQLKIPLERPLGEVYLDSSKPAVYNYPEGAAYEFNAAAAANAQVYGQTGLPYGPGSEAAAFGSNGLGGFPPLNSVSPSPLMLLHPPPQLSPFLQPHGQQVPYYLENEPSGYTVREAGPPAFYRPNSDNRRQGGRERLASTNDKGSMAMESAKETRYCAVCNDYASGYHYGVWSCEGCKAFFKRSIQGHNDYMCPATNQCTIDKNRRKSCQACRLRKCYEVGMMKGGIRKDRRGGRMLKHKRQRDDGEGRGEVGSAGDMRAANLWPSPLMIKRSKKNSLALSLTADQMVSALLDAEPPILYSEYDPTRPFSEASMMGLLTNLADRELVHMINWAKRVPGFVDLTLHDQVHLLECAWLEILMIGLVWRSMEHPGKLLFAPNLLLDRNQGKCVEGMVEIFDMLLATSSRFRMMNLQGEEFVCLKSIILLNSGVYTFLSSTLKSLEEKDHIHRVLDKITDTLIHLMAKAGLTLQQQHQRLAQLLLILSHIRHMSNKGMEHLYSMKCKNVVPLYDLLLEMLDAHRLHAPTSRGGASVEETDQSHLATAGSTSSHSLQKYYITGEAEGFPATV
# Description: (§1) To correct for non-specific binding, a control containing all the added components except for the hot mix was considered. The incubation was carried out at room temperature for 2 h before 100 µL of 50% hydroxyapatite slurry (HAPS) was added. The tubes were incubated on ice for 15 min with vortexing every 5 min. The appropriate ER wash buffer was added (1 mL), and the tubes were vortexed before centrifuging at 10000×g for 5 min. The supernatant was discarded, and this wash step was repeated three times. The HAPS pellet containing the ligand-receptor complex was re-suspended in 200 µL of ethanol and transferred to scintillation vials. An additional 200 µL of ethanol was used to rinse the centrifuge tube.
# [5] = Isomerization of isoliquiritigenin to liquiritigenin under bioassay conditions (LC-MS/LC-UV); type: physicochemical
# Description: To evaluate this conversion and better define the compounds responsible for the observed estrogenic activity, LC-MS monitoring of the isomerization of these active principles in the cell-based assays was performed in parallel to every bioassay. One set of plates was considered for time 0, when there was no treatment and another set was considered for the final harvesting day for every experimental condition. The media exposed to cells were collected and extracted by adding sodium acetate buffer (100 mM, pH 5), followed by liquid-liquid extraction by water-saturated ethyl acetate.
# human recombinant ERβ [6] = target: T1, human recombinant ERβ; experiment: biochemical
# Description: as §1
# Ishikawa cells = experiment: Cytotoxicity in cell culture assays; type: cell-based; conditions: AP assay, reduction in the estrogenic response
# From the text: The Ishikawa cell line was provided by Dr. R. B. Hochberg (Yale University, New Haven, CT) and was maintained in Dulbecco's Modified Eagle Medium (DMEM/F12) containing 1% sodium pyruvate, 1% nonessential amino acids (NEAA), 1% glutamax-1, 0.05% insulin, and 10% heat-inactivated FBS [32], [33], [34]. […] Two days before treating the cells, the medium was replaced with phenol red-free DMEM/F12 medium containing charcoal/dextran-stripped FBS and supplements. […] However, alkaline phosphatase was not inducible in ECC1 cells obtained from ATCC. Despite this controversy, we will keep the conventional name, Ishikawa, for this cell line throughout this paper. The MCF-7 cell line was purchased from ATCC. […] Two days prior to treating the cells, the medium was replaced with phenol red-free RPMI 1640 medium containing charcoal/dextran-stripped FBS with acetone-washed activated charcoal (100mg/mL) at 4°C for 30 min and centrifuged at 4000 rpm for 15 min at 4°C. This step was repeated in triplicate. Extracts and compounds were not toxic to cells at the applied concentrations, under these experimental conditions. DMSO concentrations for all cell culture assays were below 0.1%.
# Tff1 mRNA in T47D cells = experiment: Tff1 mRNA induction in T47D cells (qRT-PCR); type: cell-based; conditions: 8-PN 100 nM, LigF 5 µM, LigC 5 µM, 6 h, relative to DMSO
# Description: Quantitative real-time polymerase chain reaction (qRT-PCR) was used to examine the modulation of the Tff1 induction following treatment of T47D cells with the extracts and the related compounds. Experiments were performed four independent times in triplicates. T47D cells (4×10^4 cells/mL) were preincubated in estrogen-free media for 72 h. […] Total RNA was isolated using the TRIzol Plus RNA purification kit (Invitrogen) and quantitated by UV analysis at 260 nm. cDNA synthesis was performed using qScript cDNA synthesis kit (Quanta Biosceiences) in a total volume of […], containing 4 µL qScript reaction mixture (5X), 1 µL qScript RT, 10 µL nuclease-free water, and 5 µL of RNA sample. The reaction was carried out for 5 min at 22°C, followed by 42°C for 30 min and a 5 min incubation step at 85°C. The PCR and subsequent analyses were performed using the ABI StepOne Plus RT-PCR system (Applied Biosystems). Quantitation was performed using the TaqMan technology of Applied Biosystems. Tff1 was evaluated using a predeveloped gene expression primer/probe set (Applied Biosystems' Assay on Demand). Briefly, the PCR reaction mixture was prepared in a total volume of 20 µL, containing 1 µL 20X TagMan Gene Expression Assay, 10 µL 2X TaqMan Gene Expression Master Mix, 4 µL cDNA template, and 5 µL RNase-free water. The reaction mixture was incubated at 50°C for 2 min followed by 10 min at 95°C. Polymerase chain reactions were performed in triplicate and consisted of 40 cycles with 15 s denaturing step at 95°C and 1 min annealing/extending step at 60°C each. The fluorescence signal was measured during the last 30 s of the annealing/extension phase. Following analysis, a fluorescence threshold value was set and threshold cycle (Ct) values were determined. […] The final results were expressed as a fold induction, where the levels of Tff1 observed in the DMSO-treated samples was defined as one.
# ERα [7] = target: T2, ERα
# Description: as §1
# ERα [8] = target: T2, ERα; experiment: Pulsed ultrafiltration LC-MS screening for ERα ligands; type: binding; parameters: purchased Invitrogen (Grand Island, NY); conditions: crude MeOH extract 150 µg/ml, 1 h room temperature, denatured ER control
# Description: A screening assay based on ultrafiltration mass spectrometry was used to identify the ligands of ER present in licorice crude extracts. Briefly, 150 µg/ml of the methanol crude extract was incubated for 1 h at room temperature with 50 pmol of ERα or ERβ in binding buffer consisting of 50 mM Tris-HCl (pH 7.5), 10% glycerol, 50 mM KCl, and 1 mM ethylenediaminetetraacetic acid (EDTA) in a total volume of 50 µL. Identical control incubations in which denatured ER was substituted for active ER was used to correct for nonspecific binding of compounds to the ultrafiltration membrane and holder. After incubation, each mixture was filtered through a Microcon (Millipore, Bedford, MA) YM-30 centrifugal filter containing a regenerated cellulose ultrafiltration membrane with a 30000 MW cutoff and washed three times with 200 µL aliquots of ammonium acetate buffer (pH 7.5) at 4°C to remove the unbound compounds. The bound ligands were released by adding 400 µL of methanol/water (90∶10; v/v) followed by centrifugation at 10000×g for 10 min. […] Aliquots (10 µL) were analyzed using LC-MS, which consisted of a reverse phase separation on a Shimadzu (Kyoto, Japan) Shim-Pack XR-ODS III C18 (1.6 µm, 2.0 mm ×50 mm) column and mass spectrometric analysis on a Shimadzu LCMS- IT-TOF mass spectrometer. […]
# [9] = read-out: AP induction Ishikawa cells EC50
# T1 sequence (Q92731 whole entry): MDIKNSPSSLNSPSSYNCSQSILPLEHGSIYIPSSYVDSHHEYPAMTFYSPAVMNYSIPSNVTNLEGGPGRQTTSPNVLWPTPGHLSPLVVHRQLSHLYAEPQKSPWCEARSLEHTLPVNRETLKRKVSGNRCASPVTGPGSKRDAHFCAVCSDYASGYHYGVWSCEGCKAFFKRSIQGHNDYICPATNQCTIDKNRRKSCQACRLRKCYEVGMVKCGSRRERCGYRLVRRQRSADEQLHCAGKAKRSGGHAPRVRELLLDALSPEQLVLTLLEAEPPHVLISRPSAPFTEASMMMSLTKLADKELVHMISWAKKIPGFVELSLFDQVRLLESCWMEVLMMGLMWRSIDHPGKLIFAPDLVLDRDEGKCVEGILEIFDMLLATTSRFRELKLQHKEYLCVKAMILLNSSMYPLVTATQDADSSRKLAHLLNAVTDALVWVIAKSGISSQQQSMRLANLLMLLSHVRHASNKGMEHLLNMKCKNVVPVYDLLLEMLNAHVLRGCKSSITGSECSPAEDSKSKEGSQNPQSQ
smiles,measurement,setting,value
"CC(C)=CCc1c(O)cc(O)c2c1O[C@H](c1ccc(O)cc1)CC2=O [8-PN, 8-prenylnaringenin]",IC50,human recombinant ERβ [1],1700 ± 100 nM
same,ERE-luciferase induction in MCF-7 cells (in words),[2],showed induction of ERE-luciferase
same,EC50,"[3]; read-out: AP induction Ishikawa cells EC50, as given in text, 96 h",6.6 nM
same,EC50,"[3]; read-out: AP induction Ishikawa cells EC50, isolated compounds, 96 h, n = 9",6.65 ± 1.4 nM
"C[C@]12CC[C@@H]3c4ccc(O)cc4CC[C@H]3[C@@H]1CC[C@@H]2O [17β-estradiol, reference compound]",EC50,[3]; [9],0.19 ± 0.05 nM
"O=C(/C=C/c1ccc(O)cc1)c1ccc(O)cc1O [LigC, isoliquiritigenin]",IC50,ERα [4],16000 ± 1000 nM
same,isomerization of LigC to LigF,"[5]; ER binding buffer, 2 h at room temperature, LC-UV",did not show any isomerization of LigC to LigF; also recorded: did not show a conversion of LigC to LigF
same,isomerization of LigC to LigF,"[5]; cell media of AP assay, 96 h with Ishikawa cells at 37°C, LC-MS",significant reduction in the LigC content and a corresponding increase in LigF formation; also recorded: mostly converted to LigF
same,isomerization of LigC to LigF,"[5]; cell media of mRNA induction assay, 6 h with T47D cells at 37°C, LC-MS",did not show a significant formation of LigF from LigC; also recorded: the conversion was limited
same,IC50,human recombinant ERβ [6],7800 ± 100 nM
same,concentrations with cytotoxic effects,Ishikawa cells,above 7.5 µM
same,EC50,[3]; [9],2700 ± 200 nM
same,Tff1 mRNA induction in T47D cells,Tff1 mRNA in T47D cells,"induced Tff1, significantly"
"O=C1C[C@@H](c2ccc(O)cc2)Oc2cc(O)ccc21 [LigF, liquiritigenin]",IC50,ERα [4],> 200000 nM
same,IC50 ERα,ERα [7],very weak affinity for ERα
same,fold induction at 0.1 µM,"[2]; Homo sapiens, MCF7, isolated compounds at 100 nM, DMSO set to 1",2.1 ± 0.4
same,ERE-luciferase induction in MCF-7 cells (in words),[2],showed induction of ERE-luciferase
same,EC50,[3]; [9],3400 ± 400 nM
same,Maximum AP fold induction Ishikawa cells,[3]; maximum efficacy,83 fold and 83.1±3.4 fold
same,binding to ERα in PUF-MS screening,ERα [8],bound to ERα and ERβ
same,Tff1 mRNA induction in T47D cells,Tff1 mRNA in T47D cells,"lower than that of 8-PN (0.1 µM), but the difference was not significant"
"COc1cc(O)c(CC=C(C)C)c(O)c1C(=O)/C=C/c1ccc(O)cc1 [XH, xanthohumol]",ERE-luciferase induction in MCF-7 cells (in words),[2],did not show any induction of ERE-luciferase
same,AP induction Ishikawa cells EC50,"[3]; isolated compounds, n = 9",inactive
same,Tff1 mRNA induction in T47D cells,Tff1 mRNA in T47D cells,no Tff1 activity
